Results taken from patent EP2462919A2, “Synergistic active agent combination for protecting the skin from IR radiation” (priority 2010, dated 2012).

How the values were obtained:
Assay type in all cases: cell-based
[1] = tested on: Kollagenase MMP-1; assay: Gene expression of ageing marker MMP-1 in cultured monolayer fibroblasts after substance treatment and infrared irradiation; details: for Expression der Kollagenase MMP-1 (result in words): Fibroblasten, Infrarot-Strahlen 760-1400 nm, after treatment
Text: (§1) 1. In vitro Assays hinsichtlich der Expression typischer Altersmarker in kultivierten Fibroblasten nach Substanzgabe und Infrarotbestrahlung
(§2) Methode: Monolayer-Fibroblasten wurden 24 Stunden vor und 24 Stunden nach Infrarot-Bestrahlung mit Lipochroman (Dimethylmethoxy Chromanol, 0,005 Gew.-%), Taurin (2-Aminoethansulfonsäure 0,005 Gew.-%) und Kombinationen beider Substanzen behandelt. Im Folgenden wurde die Genexpression der zwei Hautalterungsmarker Kollagenase MMP-1, das hinsichtlich der Hautalterung wichtigste Kollagen abbauende Enzym, und des spezifischen Inhibitors der Kollagenase MMP-1, TIMP-1 (tissue inhibitor of metalloproteinase 1), untersucht. Die Genexpressionswerte wurden im Folgenden auf die Werte der jeweiligen unbehandelten Kontrolle relativiert. Als Kontrollen wurden Fibroblasten analysiert, die ausschließlich mit Infrarot bestrahlt wurden.

[2] = tested on: TIMP-1 (tissue inhibitor of metalloproteinase 1); assay: Gene expression of ageing marker TIMP-1 in cultured monolayer fibroblasts after substance treatment and infrared irradiation; details: for Expression von TIMP-1 (result in words): Fibroblasten, Bestrahlung mit Infrarot-Strahlen, after treatment
Text: as §1, §2

[3] = tested on: MMP1 / TIMP-1; assay: MMP-1 / TIMP-1 expression ratio (collagen build-up/degradation balance) in fibroblasts after substance treatment and infrared irradiation; details: Monolayer-Fibroblasten, mit Infrarot A bestrahlt, irradiated-only control 1,2
Text: as §1
as §2, with “Methode: Monolayer-Fibroblasten wurden 24 Stunden vor und 24 Stunden nach Infrarot-Bestrahlung mit Lipochroman (Dimethylmethoxy Chromanol, 0,005 Gew.-%), Taurin (2-Aminoethansulfonsäure 0,005 Gew.-%) und Kombinationen beider Substanzen behandelt.” left out
Entscheidend für die Balance des Auf- und Abbaus von Kollagen in der Dermis ist das Verhältnis zwischen MMP-1 und TIMP-1. Ist dieses Verhältnis größer als der Vergleichswert, so kann von einem vermehrten Abbau durch die Kollagenase ausgegangen werden, ist das Verhältnis kleiner, so wird der Abbau vermehrt verhindert und neues Kollagen kann synthetisiert werden.

| Expression der Kollagenase MMP-1 (result in words) [1] | Expression von TIMP-1 (result in words) [2] | SMILES | fold induction at 0.005 % ([1]; Fibroblast, light or radiation study, Monolayer-Fibroblasten, mit Infrarot A bestrahlt, 0,005 % Lipochroman-6, treated 24 h before and 24 h after irradiation, read-out: MMP-1 Regulierung mRNA (Gene Expression versus Sham control)) | fold induction at 0.005 % ([2]; Fibroblast, light or radiation study, Monolayer-Fibroblasten, mit Infrarot A bestrahlt, 0,005 % Lipochroman-6, treated 24 h before and 24 h after irradiation, read-out: TIMP-1 Regulierung mRNA (Gene Expression versus Sham control)) | MMP1 / TIMP-1 Ratio ([3]; 0,005 % Lipochroman-6) | fold induction at 0.05 % ([1]; Fibroblast, light or radiation study, Monolayer-Fibroblasten, mit Infrarot A bestrahlt, 0,05 % Taurin, treated 24 h before and 24 h after irradiation, read-out: MMP-1 Regulierung mRNA (Gene Expression versus Sham control)) | fold induction at 0.05 % ([2]; Fibroblast, light or radiation study, Monolayer-Fibroblasten, mit Infrarot A bestrahlt, 0,05 % Taurin, treated 24 h before and 24 h after irradiation, read-out: TIMP-1 Regulierung mRNA (Gene Expression versus Sham control)) | MMP1 / TIMP-1 Ratio ([3]; 0,05 % Taurin) |
| --- | --- | --- | --- | --- | --- | --- | --- | --- |
| erhöhten Expressionswerten | starken Expressionssteigerung | COc1cc2c(cc1O)CCC(C)(C)O2 [Lipochroman-6, 3,4-Dihydro-7-methoxy-2,2-dimethyl-2H-2 1-benzopyran-6-ol] | 1.75 | 1.65 | 2,7 | – | – | – |
| erhöhten Expressionswerten | leichten Steigerung der Expression | NCCS(=O)(=O)O [Taurin, 2-Aminoethansulfonsäure] | – | – | – | 2.05 | 1.1 | 1,6 |
